Values joined by “and” are separate entries in the source; they are usually repeats but may differ in a detail not shown here. Identical values can stand only once.
Key:
rabbits = assay: 13-week ocular toxicity study in rabbits with 4-week recovery (toxicity and TK); details: rabbits (3%)
Solubility studies = format: physicochemical
[1] = tested on: cell attachment and SEB IL-2 release; assay: cells; format: cell-based
mini-pigs = assay: Pilot mini-pig dermal study
[2] = Single dose ADME study with [14C]-compound in dogs; format: in vivo; details: dog, for 16 hrs
Description: No differences in results from male and female dogs were observed.

rats [3] = assay: Pilot rat dermal study; format: in vivo; details: 1% lotion, ointment, gel, DMSO; TID seven days, 10 mg/cm^2
Procedure: The safety and tolerability of prototypical dermal formulations (1% lotion, ointment, and gel) were assessed on rats given TID for seven consecutive days—approximately 6 cm^2 with 10 mg/cm^2.

rats [4] = assay: 13-week IV toxicity study in rats with 4-week recovery (toxicity and plasma exposure); format: in vivo, rat
[5] = Single dose ocular and IV ADME study with [14C]-compound in rats, quantitative whole body autoradiography; format: in vivo, rat; details: tissue distribution in pigmented vs albino rats
dogs = assay: Pilot ocular tolerance / PK of topically administered compound in dogs; format: in vivo, dog; details: up to 10% strength at 3 doses/day
[6] = tested on: HuT 78 cell adhesion to 5dICAM-Ig; assay: Human T-cell adhesion assay (HuT 78 cell adhesion to 5dICAM-Ig); format: cell-based; details: HuT78, HuT 78 cells, read-out: EC50, inhibition of T-cell adhesion
Procedure: The T-cell adhesion assay was performed using the human T-lymphoid cell line HuT 78 (ATCC TIB-161). Goat anti-HuIgG(Fc) was diluted to 2 μg/ml in PBS and 96-well plates were coated with 50 μl/well at 37° C. for 1 h. Plates were washed with PBS and blocked for 1 h at room temperature with 1% BSA in PBS. 5 domain ICAM-Ig was diluted to 100 ng/ml in PBS and 50 μl/well was added to the plates O/N at 4° C. HuT 78 cells were centrifuged at 100 g and the cell pellet was treated with 5 mM EDTA for ˜5′ at 37° C. in a 5% CO2 incubator. Cells were washed in 0.14 M NaCl, 0.02 M Hepes, 0.2% glucose and 0.1 mM MnCl2 (assay buffer) and centrifuged. The cells were resuspended in assay buffer to 3.0×10^6 c/ml Inhibitors were diluted in assay buffer to a 2× final concentration and pre-incubated with HuT78 cells for 30′ at room temperature. 100 μl/well of cells and inhibitors were added to the plates and incubated at room temperature for 1 h. 100 μl/well PBS was added and the plates were sealed and centrifuged inverted at 100 g for 5′. Unattached cells were flicked out of the plate and excess PBS was blotted on a paper towel. […] The enzyme reaction was stopped with […] 50 mM glycine/5 mM EDTA and read on a platereader at […]. HUT 78 cell adhesion to 5dICAM-Ig was measured using the p-nitrophenyl n-acetyl-f3-D-glucosaminide method of Landegren, U. (1984). […]

rats [7] = assay: Respiratory function in rats, single IV bolus, head-out plethysmograph; format: in vivo, rat; details: any dose
[8] = Rat ocular pharmacokinetics of [14C]-compound (ocular tissue levels); format: in vivo; details: rat, for 16 hrs
[9] = Plasma PK after single topical ocular instillation (dogs and rabbits); details: baseline levels by about 4 hours
[10] = tested on: Keratoconjunctivitis Sicca (KCS); assay: Canine keratoconjunctivitis sicca (KCS) study; format: in vivo, dog
Description: If dogs had been treated with topical CsA or tacrolimus in the previous six months, they were not enrolled. […] Animals were subjected to an ocular examination once during the initial visit and during five visits over sixteen weeks of the study (Weeks, 2, 4, 8, 12 and 16). The last OE was approximately four weeks after the last dose of the compound of Formula I and after one month of CsA treatment. The adnexa and anterior portions of both eyes were examined using an indirect opthalmoscope. The eyes were dilated with a mydriatic when applicable, to allow evaluation of the lens and fundus, including the retina. An evaluation using a modified McDonald-Shaddock scoring system was performed in conjunction with the slitlamp ocular examinations at each interval. Tears were measured using STT strips during the initial visit and each of the five follow-up visits on Weeks 2, 4, 8, 12 and 16. One strip of STT paper was used for each eye for each interval. […] The length, in mm, of wetting below the notch of the paper was recorded. Fluorescein and rose bengal staining was performed at the each of the initial and follow up examinations. Intraocular pressure measurements (IOPs) were performed using a Tono-Pet Vet® in conjunction with each of the OEs. Digital ocular images were taken before and after staining (with fluorescein and rose bengal) during each of the OEs. Conjunctival biopsies were taken at the initial (pretreatment) visit and the Week 12 visit. The second biopsy was taken more lateral (approx. 1 mm) to the initial biopsy. Following appropriate preparation a small conjunctival biopsy was taken from the ventral fornix of each eye.

[11] = Phase 1 clinical trial, plasma PK analysis; format: in vivo, human
Procedure: Samples were also obtained at 48 hours post dose on Days 1, 14 and 27 and a single blood sample was collected at the follow-up visit at the end of the study.

[12] = daily IV bolus 3 mg/kg, Week 13
[13] = daily IV bolus 10 mg/kg, Week 13
[14] = daily IV bolus 30 mg/kg, Week 13

In the case of `CS(=O)(=O)c1cccc(C[C@H](NC(=O)c2c(Cl)cc3c(c2Cl)CCN(C(=O)c2ccc4ccoc4c2)C3)C(=O)O)c1` [compound of Formula I], the NOAEL (rabbits) is reported as 1.05 mg/eye/3× per day, the solubility (Solubility studies; ethanol/glycol/transcutol solution) is reported as 10 % (w/w) and the solubility (Solubility studies; water/glycol/transcutol solution) is reported as 2 % (w/w). The IC50 [1] was 2 nM, the toxicity (mini-pigs; DMSO, gel, ointment, lotion at 1%, dermal TID for 7 days, 10 mg/cm^2) was “No toxicity” and the plasma level (mini-pigs; all groups, below the LLOQ) was < 0.5 ng/mL. For the same molecule, the levels in conjunctiva/cornea [2] was “greater than 1 micromolar”, the serum level (rats [3]) was “detectable in serum” and the AUC0-n (rats [4]; daily IV bolus 3 mg/kg, Day 1) was 148.3 ng·h/mL. It also gave a Cmax (rats [4]; daily IV bolus 3 mg/kg, Day 1) of 305.2 ng/mL, an AUC0-n (rats [4]; [12]) of 241.4 ng·h/mL and a Cmax (rats [4]; [12]) of 377.5 ng/mL. For the same molecule, the AUC0-n (rats [4]; daily IV bolus 10 mg/kg, Day 1) was 535.6 ng·h/mL, the Cmax (rats [4]; daily IV bolus 10 mg/kg, Day 1) was 1045.3 ng/mL and the AUC0-n (rats [4]; [13]) was 907.1 ng·h/mL. The Cmax (rats [4]; [13]) was 1691.5 ng/mL, the AUC0-n (rats [4]; daily IV bolus 30 mg/kg, Day 1) was 2345.5 ng·h/mL and the Cmax (rats [4]; daily IV bolus 30 mg/kg, Day 1) was 5117.3 ng/mL. The AUC0-n (rats [4]; [14]) was 7471.5 ng·h/mL, the Cmax (rats [4]; [14]) was 16932.8 ng/mL and the binding to melanin [5] was “did not preferentially bind to melanin”. The “ocular safety and tolerability” value (dogs) was “safe and well tolerated”, the EC50 [6] was < 50 nM and the “respiratory function (tidal volume, respiration rate, minute volume)” value (rats [7]) was “No adverse changes in respiratory function or adverse effects”. The levels in conjunctiva/cornea [8] was > 100 nM, the “time of maximum plasma concentration post-dose” value [9] was “about 0.25 hrs” and the “Schirmer Tear Test (OS), individual dogs” value ([10]; Week 1, left eye, 1% solution, 0.35 mg/eye TID) was 9 mm (2×) and 0 mm (3×) and 7 mm. For the same molecule, the “Schirmer Tear Test (OD), individual dogs” value ([10]; Week 1, right eye, 1% solution, 0.35 mg/eye TID) was 8 mm (2×) and 6 mm (2×) and 0 mm and 5 mm, the “Schirmer Tear Test (OS), individual dogs” value ([10]; Week 2, left eye, 1% solution TID) was 4 mm and 0 mm (2×) and 14 mm and 3 mm and 8 mm and the “Schirmer Tear Test (OD), individual dogs” value ([10]; Week 2, right eye, 1% solution TID) was 10 mm and 2 mm (2×) and 11 mm (3×). For the same molecule, the “Schirmer Tear Test (OS), individual dogs” value ([10]; Week 4, left eye, 1% solution TID) was 14 mm (2×) and 0 mm (2×) and 7 mm and 5 mm, the “Schirmer Tear Test (OD), individual dogs” value ([10]; Week 4, right eye, 1% solution TID) was 15 mm and 2 mm and 0 mm and 5 mm and 10 mm (2×) and the “Schirmer Tear Test (OS), individual dogs” value ([10]; Week 8, left eye, 1% solution TID) was 8 mm (2×) and 0 mm and 2 mm and 17 mm and 6 mm. For the same molecule, the “Schirmer Tear Test (OD), individual dogs” value ([10]; Week 8, right eye, 1% solution TID) was 17 mm and 1 mm and 8 mm and 7 mm (2×) and 11 mm, the “Schirmer Tear Test (OS), individual dogs” value ([10]; Week 12, left eye, 1% solution TID) was 8 mm (2×) and 3 mm and 7 mm and 15 mm and 4 mm and the “Schirmer Tear Test (OD), individual dogs” value ([10]; Week 12, right eye, 1% solution TID) was 16 mm and 0 mm and 8 mm and 7 mm and 13 mm and 9 mm. The “Schirmer Tear Test (OS), individual dogs” value ([10]; Week 16, left eye, four weeks after last dose and after one month of CsA 0.2% ointment) was 17 mm and 3 mm and 5 mm and 16 mm and 7 mm and 19 mm, the “Schirmer Tear Test (OD), individual dogs” value ([10]; Week 16, right eye, four weeks after last dose and after one month of CsA 0.2% ointment) was 18 mm and 12 mm and 8 mm (3×) and 22** mm and the “Maximum-Minimum Analysis, maximal change in STT, OS, individual dogs” value ([10]; Weeks 1-12, left eye) was 7 mm (2×) and 11 mm and 3 mm and 10 mm and 6 mm. The “Maximum-Minimum Analysis, maximal change in STT, OD, individual dogs” value ([10]; Weeks 1-12, right eye) was 3 mm and 8 mm (3×) and −4 mm and 5 mm, the “average improvement in STT, all 12 eyes” value ([10]; during the treatment period (12 weeks)) was 4 mm and the “Histopathological evaluation of conjunctival biopsies taken before and after treatment” value ([10]; pretreatment vs Week 12) was “attenuation of lymphocyte accumulation”. For the same molecule, the “mean change in Schirmer test score over pretreatment” value ([10]; week 12) was “Significant improvement”, the plasma concentration ([11]; 0.1% dose strength, single and multiple doses, all timepoints (BLOQ)) was < 0.500 ng/mL and the plasma concentration ([11]; 0.3% dose strength, single and multiple doses, all timepoints (BLOQ)) was < 0.500 ng/mL. For the same molecule, the plasma concentration ([11]; 1% dose strength, 3 of 5 subjects (BLOQ)) was < 0.500 ng/mL and the plasma concentration ([11]; 5% dose strength, generally not detectable after the first hour) was < 3 ng/mL.
